Values after ≈ are worked out from the molar mass of the structure shown. Like-named read-outs stand apart in the source and are kept apart here.
Legend:
[1] = 70° C.; 20 min (10% hydrochloric acid), 180 min (ascorbic acid); cited from earlier work
[2] = wide pH range; cited from earlier work
[3] = Nitrosation in gastric juice or simulated gastric juice (Griess reagent, TLC); details: for NC (nitrosocimetidine) found: 75 ml simulated gastric juice, 37° C., pH 1.0-3.5, ascorbate-nitrite 6:1 molar ratio
pH of aqueous solution = format: physicochemical
[4] = test system: desoxyribonucleic acid (DNA); details: cimetidine 250 mg/kg with nitrite 80 mg/kg; cited from earlier work
gastric carcinoma = details: in vivo; cited from earlier work
rats = details: eight days treatment, 500 mg/kg; cited from earlier work
[5] = Stability to ambient environment (air, light, oxidation)

In the case of `O=C1O[C@H]([C@@H](O)CO)C(O)=C1O` [ascorbic acid, 3-oxo-L-gulofuranelactone (enolic form)], the denitrosation [1] is listed as “innefective” and the “inhibition of N-nitroso compound formation” value [2] is listed as “most effective over a wide pH range”.
For `CNC(=NC#N)NCCSCc1nc[nH]c1C` [Example 1, Cimetidine L-ascorbate], the “water solubility (in words)” value (Solubility in water) was “soluble in water”, the “NC (nitrosocimetidine) found” value ([3]; listed as cimetidine ascorbate) was 0.18 ppm and the “outcome of relapse and improvement maintenance cases” value (duodenal ulcer; maintenance doses 680 mg ascorbate or 860 mg diascorbate, one year continuously, two years with breaks) was “normality being achieved”. The “outcome in males with duodenal ulcer diagnosis” value (duodenal ulcer; males aged 55-60 years, usual periods of cimetidine medication) was “back to normal” and the “pH of aqueous solution” value (pH of aqueous solution) was 4.5.
In the case of `CN/C(=N/CCSCc1nc[nH]c1C)NC#N` [cimetidine, N"-cyano-N'-methyl-N-2-(5-methyl-1H-imidazol-4-yl)methylthioethylguanidine], the “NCD (nitroso compound derivatives) determined” value ([3]; 400 mg cimetidine, 36.4 mg sodium nitrite, 75 ml gastric juice, pH 1.5, 37° C., 60 min) is given as 100 ppm, the “evidence of DNA damage” value [4] is given as “no evidence of desoxyribonucleic acid (DNA) damage” and the “gastric carcinoma related with treatment” value (gastric carcinoma) is given as “appearance of a gastric carcinoma”.
For `Cc1[nH]cnc1CSCCN=C(NC#N)N(C)N=O` [NC, nitrosocimetidine], the toxic effect (rats) is listed as “no toxic effect”.
For `CNC(=C[N+](=O)[O-])NCCSCc1ccc(CN(C)C)o1` [Example 18, Ranitidine diascorbate], the “TLC spot of nitroso derivative at Rf = 0.83” value ([3]; gastric juice pH 1.5, 318 mg diascorbate, 18.2 mg sodium nitrite, 60 min) was “did not appear”.
For `CNC(=C[N+](=O)[O-])NCCSCc1ccc(CN(C)C)o1` [ranitidine, N-(2-(((5-((dimethylamino)methyl)-2-furanyl)methyl)thio)ethyl)N'-methyl-2-nitro-1,1-ethenediamine, reference compound], the “formation of nitroso compounds / nitrosatability” value ([3]; gastric juice conditions) was “causes the formation of nitroso derivatives and nitrosated degradation products”.
For `CNC(=C[N+](=O)[O-])NCCSCc1ccc(CN(C)C)o1` [Example 8, Ranitidine L-ascorbate], the “pH of aqueous solution” value (pH of aqueous solution) was 3.5.
For `NC(N)=Nc1nc(CSCCC(N)=NS(N)(=O)=O)cs1` [Example 12, Famotidine L-ascorbate], the “stability to air, light, ambient conditions” value (from here on “stability to air, light”) [5] was “has to be preserved from the air and light”, the solubility (Solubility in water; water, Solubility in water, room temperature where printed) was 75 mg/mL (≈ 222 mM) and the “pH of aqueous solution” value (pH of aqueous solution) was 5.9. The “pH of aqueous solution” value (pH of aqueous solution; listed as famotidine ascorbate) was 5.6.
With `CN/C(=N/CCSCc1nc[nH]c1C)NC#N` [Example 16, Cimetidine diascorbate] the “stability to air, light” value [5] was “has to be preserved from the air and light”, the “NC (nitrosocimetidine) found” value [3] was 0.13 ppm and the “NC produced in cases of hyperchlorhydria” value ([3]; abnormally high nitrite concentrations) was 0.08 ppm.
With `Nc1n[s+]([O-])nc1NCCCOc1cccc(CN2CCCCC2)c1` [Example 14, CM.5 antagonist L-ascorbate] the “stability to air, light” value [5] was “has to be preserved from the air and light” and the “water solubility (in words)” value (Solubility in water) was “water soluble”.
In the case of `Cc1ccc(Cc2c[nH]c(NCCSCc3ccc(CN(C)C)o3)nc2=O)cn1` [Example 15, CM.10 antagonist L-ascorbate], the “water solubility (in words)” value (Solubility in water) is reported as “water soluble”.
In the case of `Cl` [hydrochloric acid], the denitrosation [1] is given as “innefective”.
